Values after ≈ are worked out from the molar mass of the structure shown.
Experiments:
[1] = test system: M. tuberculosis H37Rv-GFP in Raw264.7 macrophages; test: microbe, parasite or virus in culture; assay type: cell-based; conditions: Mycobacterium tuberculosis
[2] = pH 7.4, PBS
[3] = Pharmacokinetic experiments (DMSO formulation); assay type: in vivo, Swiss mice; conditions: mice, oral, dose 20 mg/kg, vehicle 100% DMSO
Protocol: Pharmacokinetic experiments (DMSO Formulation). Compounds were administered at 20 mg per kg body weight by oral route to Swiss mice (22-24 g) (WIV-ISP breeding). Three mice per time point were anesthetized with ketamine-xyalzine and bled them at 10 min, 20 min, 30 min, 1 h, 2 h, 3 h and 6 h after administration of a single dose of ligands. Blood was collected from the brachial region on lithium heparinated tubes in order to prevent coagulation.
(§1) Plasma samples preparation. Plasma samples were thawed on ice. Aliquots of 50 μL were precipitated with 450 μL of ice cold acetonitrile containing internal standard (1 μM). The samples were vigorously mixed with a Vortex, centrifuged at 10000 rpm, at 4° C. for 10 min and the supernatants were transferred into Matrix tubes for LC-MS-MS analysis. Spiked standard solutions (10, 50, 100, 500, 1000, 5000, 10000 and 50000 nM) were prepared the same way.

in vitro = conditions: CD-1, mouse, microsomes, pH 7.4
[4] = Pharmacokinetic experiments (aqueous hydroxypropyl-β-cyclodextrin formulation); assay type: in vivo, CD1 female mice; conditions: mice, single oral dose 20 mg/kg, vehicle aqueous 100 mM hydroxypropyl-β-cyclodextrin
Protocol: Pharmacokinetic experiments (aqueous hydroxypropyl-β-cyclodextrin Formulation). Compounds solubilized in aqueous hydroxypropyl-β-cyclodextrin solution (100 mM) were administered in single dose (20 mg/kg) to CD1 female mice (25-30 g) (Charles River Laboratories). […] Mice were immediately sacrificed by cervical dislocation. Three mice were dosed per kinetics time point.
as §1

physchem = conditions: pH 7.4, aqueous buffer, kinetic from dmso stock
[5] = RAW264.7, Table 1, […], mean of two experiments

SMILES	EC50 ([1]; RAW264.7) [nM]	Solubility [2] [µg/mL]	AUC∞ [3] [ng·h/mL]	microsomal CLint (in vitro) [µL/min/mg]	EC50 [1, 5] [nM]	AUC∞ [4] [ng·h/mL]	microsomal CLint at 1 μM (in vitro) [µL/min/mg]	solubility at 24 h (physchem) [µg/mL]
O=C(CCC(F)(F)F)N1CC[C@@H](c2nc(-c3cccs3)no2)C1 [Compound 2]	400	80 (≈ 232 µM)	100	4	–	–	–	–
O=C(CCC(F)(F)F)N1CCC(c2nc(-c3cccs3)no2)CC1 [Compound 3, 4-4-4-trifluoro-1-[4-(3-thiophen-2-yl-[1,2,4]oxadiazol-5-yl)-piperidin-1-yl]butan-1-one, reference compound]	100	150 (≈ 417 µM)	–	213	100	–	–	–
O=C(CCC(F)(F)F)N1CCC(c2nc(-c3nccs3)no2)CC1 [Compound 5, 4,4,4-Trifluoro-1-[4-(3-thiazol-2-yl-1,2,4-oxadiazol-5-yl)-piperidin-1-yl]-butan-1-one]	≤ 500	300 (≈ 832 µM)	73500	37	500	100500	–	–
COc1ccc2nc(-c3noc(C4CCN(C(=O)CCC(F)(F)F)CC4)n3)sc2c1 [Compound 7, 4,4,4-Trifluoro-1-{4-[3-(6-methoxy-benzothiazol-2-yl)-1,2,4-oxadiazol-5-yl]-piperidin-1-yl}-butan-1-one]	–	6 (≈ 13.6 µM)	–	197	200	–	–	–
O=C(CCC(F)(F)F)N1CCC(c2nc(-c3ccccc3)no2)CC1 [Compound 8, 4,4,4-Trifluoro-1-[4-(3-phenyl-1,2,4-oxadiazol-5-yl)-piperidin-1-yl]-butan-1-one]	≤ 500	40 (≈ 113 µM)	–	–	500	–	–	–
O=C(CCC(F)(F)F)N1CCC(c2nc(C3CCCC3)no2)CC1 [Compound 32, 1-[4-(3-Cyclopentyl-1,2,4-oxadiazol-5-yl)-piperidin-1-yl]-4,4,4-trifluoro-butan-1-one]	–	–	–	–	800	–	–	–
O=C(CCC(F)(F)F)N1CC[C@@H](c2nc(-c3nccs3)no2)C1 [Compound 41, 4,4,4-trifluoro-1-[(3R)-3-[3-(1,3-thiazol-2-yl)-1,2,4-oxadiazol-5-yl]pyrrolidin-1-yl]butan-1-one]	6300	–	–	–	–	–	–	–
O=C(CCCC(F)(F)F)N1CCC(c2nc(-c3nccs3)no2)CC1 [Compound 42, 5,5,5-Trifluoro-1-[4-(3-thiazol-2-yl-1,2,4-oxadiazol-5-yl)-piperidin-1-yl]-pentan-1-one]	60	410 (≈ 1100 µM)	–	15	–	98600	–	–
O=C(CCCC(F)(F)F)N1CC[C@@H](c2nc(-c3cccs3)no2)C1 [Compound 43, 5,5,5-trifluoro-1-[(3R)-3-[3-(thiophen-2-yl)-1,2,4-oxadiazol-5-yl]pyrrolidin-1-yl]pentan-1-one]	100	–	–	–	–	–	297	237 (≈ 659 µM)
O=C(CCCC(F)(F)F)N1CCC(c2nc(-c3cccs3)no2)CC1 [Compound 44, 5,5,5-trifluoro-1-{4-[3-(thiophen-2-yl)-1,2,4-oxadiazol-5-yl]piperidin-1-yl}pentan-1-one]	70	–	–	–	–	–	–	–
O=C(CCCC(F)(F)F)N1CCC(c2nc(-c3ccccc3)no2)CC1 [Compound 45, 5,5,5-trifluoro-1-[4-(3-phenyl-1,2,4-oxadiazol-5-yl)piperidin-1-yl]pentan-1-one]	100	–	–	–	–	–	73	80 (≈ 218 µM)
CS(=O)(=O)c1ccc(-c2noc(C3CCN(C(=O)CCCC(F)(F)F)CC3)n2)cc1 [Compound 46, 5,5,5-trifluoro-1-{4-[3-(4-methanesulfonylphenyl)-1,2,4-oxadiazol-5-yl]piperidin-1-yl}pentan-1-one]	20	–	–	–	–	–	14	80 (≈ 180 µM)
